In patent publication US9663478B2, “Benzotriazine oxides as drugs targeting Mycobacterium tuberculosis” (priority 2011, dated 2017):
≈ marks a conversion by molar mass, not a printed value.

Key:
in vitro = conditions: African green monkey, VERO Tox (CC50)
Mtb H37Rv [1] = experiment: TB MIC - SRI, resazurin-based microplate assay; assay type: cell-based, Mycobacterium tuberculosis; conditions: Mycobacterium tuberculosis, H37RV, Tables 1-4 and text; read-out: TB MIC - SRI
NRP Mtb H37Rv cells = experiment: Low-oxygen recovery assay (LORA) MIC; assay type: cell-based, Mycobacterium tuberculosis; conditions: Mycobacterium tuberculosis, H37RV; NRP Mtb; Tables 1-4 and text; read-out: LORA MIC - ITR
Mtb H37Rv [2] = experiment: TB MIC - ITR (UIC), Institute for Tuberculosis Research; assay type: cell-based, Mycobacterium tuberculosis; conditions: Mycobacterium tuberculosis, H37RV; Tables 1-4; read-out: TB MIC - ITR
H37Rv = experiment: MIC H37Rv (Table E1, Additional BTO Activity Data); assay type: cell-based; conditions: Mycobacterium tuberculosis
[3] = MP MTT % viable (Table E1); conditions: MP (so in the source)
OFX-R = experiment: MIC OFX-R (Table E1); assay type: cell-based
INH-r = experiment: MIC INH-r (Table E1); assay type: cell-based
RMP-R = experiment: MIC RMP-R (Table E1); assay type: cell-based

CC(=O)Nc1cc(/C=C/c2ccc([N+](=O)[O-])o2)ns1 [Cmpd 2]
CC50 at 72 h (in vitro): > 50 µg/mL
MIC (Mtb H37Rv [1]): 0.98 µg/mL (≈ 3.51 µM)
MIC (NRP Mtb H37Rv cells): 3.7 µg/mL (≈ 13.2 µM)
MIC (Mtb H37Rv [2]): 3.8 µg/mL (≈ 13.6 µM)

CN(Cc1ccccn1)c1n[n+]([O-])c2cc3c(cc2[n+]1[O-])CCC3 [Cmpd 2]
MIC (H37Rv): 1 µg/mL (≈ 3.09 µM)

CN(c1n[n+]([O-])c2cc3c(cc2[n+]1[O-])CCC3)C1(c2ccc(F)cc2)CC1 [Cmpd 4]
MIC (H37Rv): 4.6 µg/mL (≈ 12.6 µM)

CC(C)(Nc1n[n+]([O-])c2cc3c(cc2[n+]1[O-])CCC3)c1ccc(F)cc1 [Cmpd 5]
MIC (H37Rv): 4.4 µg/mL (≈ 12.4 µM)

CCNc1n[n+]([O-])c2c(Cl)c(OC)ccc2[n+]1[O-] [Cmpd 6]
MIC (H37Rv): 0.4 µg/mL (≈ 1.48 µM)

[O-][n+]1nc(NC2(c3ccc(F)cc3)CC2)[n+]([O-])c2cc3c(cc21)CCC3 [Cmpd 7]
MIC (H37Rv): 17.6 µg/mL (≈ 49.9 µM)

COc1cccc(C2CCN(c3n[n+]([O-])c4cc5c(cc4[n+]3[O-])CCC5(C)C)C2)c1OC (stereo not drawn) [Cmpd 8]
MIC (H37Rv): 0.7 µg/mL (≈ 1.6 µM)

CC1(C)CCc2cc3c(cc21)[n+]([O-])nc(N1CCCC1)[n+]3[O-] [Cmpd 9]
MIC (H37Rv): 0.5 µg/mL (≈ 1.66 µM)

[O-][n+]1nc(N2CC3CCCC3C2)[n+]([O-])c2cc3c(cc21)CCC3 (stereo not drawn) [Cmpd 10]
viability at 0.01 ug/ml [3]: 103%
viability at 0.1 ug/ml [3]: 94%
viability at 1 ug/ml [3]: 107%
MIC (OFX-R): 0.195 µg/mL (≈ 0.624 µM)
MIC (INH-r): 0.391 µg/mL (≈ 1.25 µM)
MIC (H37Rv): 0.391 µg/mL (≈ 1.25 µM)
MIC (RMP-R): 0.098 µg/mL (≈ 0.314 µM)

CN(Cc1ccc(C(F)(F)F)cc1)c1n[n+]([O-])c2cc3c(cc2[n+]1[O-])CCC3 [Cmpd 11]
viability at 0.01 ug/ml [3]: 113%
viability at 0.1 ug/ml [3]: 108%
viability at 1 ug/ml [3]: 104%
MIC (OFX-R): 0.024 µg/mL (≈ 0.0615 µM)
MIC (INH-r): 0.195 µg/mL (≈ 0.5 µM)
MIC (H37Rv): 0.098 µg/mL (≈ 0.251 µM)
MIC (RMP-R): 0.024 µg/mL (≈ 0.0615 µM)

COc1ccc(CN(C)c2n[n+]([O-])c3cc4c(cc3[n+]2[O-])CCC4)cc1 [Cmpd 12]
viability at 0.01 ug/ml [3]: 121%
viability at 0.1 ug/ml [3]: 94%
viability at 1 ug/ml [3]: 88%
MIC (OFX-R): 0.195 µg/mL (≈ 0.553 µM)
MIC (INH-r): 0.098 µg/mL (≈ 0.278 µM)
MIC (H37Rv): 0.391 µg/mL (≈ 1.11 µM)
MIC (RMP-R): 0.098 µg/mL (≈ 0.278 µM)

[O-][n+]1nc(N2CCC(c3ccccc3F)C2)[n+]([O-])c2cc3c(cc21)CCC3 (stereo not drawn) [Cmpd 13]
viability at 0.01 ug/ml [3]: 161%
viability at 0.1 ug/ml [3]: 123%
viability at 1 ug/ml [3]: 102%
MIC (OFX-R): 0.024 µg/mL (≈ 0.0655 µM)
MIC (INH-r): 0.098 µg/mL (≈ 0.267 µM)
MIC (H37Rv): 0.098 µg/mL (≈ 0.267 µM)
MIC (RMP-R): 0.049 µg/mL (≈ 0.134 µM)

CN(Cc1ccc(F)cc1)c1n[n+]([O-])c2cc3c(cc2[n+]1[O-])CCC3 [Cmpd 14]
viability at 0.01 ug/ml [3]: 112%
viability at 0.1 ug/ml [3]: 82%
viability at 1 ug/ml [3]: 1%
MIC (OFX-R): 0.098 µg/mL (≈ 0.288 µM)
MIC (INH-r): 0.098 µg/mL (≈ 0.288 µM)
MIC (H37Rv): 0.195 µg/mL (≈ 0.573 µM)
MIC (RMP-R): 0.049 µg/mL (≈ 0.144 µM)

[O-][n+]1nc(N2CCC(c3ccccc3Cl)C2)[n+]([O-])c2cc3c(cc21)CCC3 (stereo not drawn) [Cmpd 15]
viability at 0.01 ug/ml [3]: 102%
viability at 0.1 ug/ml [3]: 75%
viability at 1 ug/ml [3]: 58%
MIC (OFX-R): 0.024 µg/mL (≈ 0.0627 µM)
MIC (INH-r): 0.098 µg/mL (≈ 0.256 µM)
MIC (H37Rv): 0.098 µg/mL (≈ 0.256 µM)
MIC (RMP-R): 0.098 µg/mL (≈ 0.256 µM)

COc1ccc(OC)c(C2CCN(c3n[n+]([O-])c4cc5c(cc4[n+]3[O-])CCC5)C2)c1 (stereo not drawn) [Cmpd 16]
viability at 0.01 ug/ml [3]: 122%
viability at 0.1 ug/ml [3]: 97%
viability at 1 ug/ml [3]: 108%
MIC (OFX-R): 0.098 µg/mL (≈ 0.24 µM)
MIC (INH-r): 0.098 µg/mL (≈ 0.24 µM)
MIC (H37Rv): 0.195 µg/mL (≈ 0.477 µM)
MIC (RMP-R): 0.195 µg/mL (≈ 0.477 µM)

[O-][n+]1nc(N2CCC(c3ccc(F)cc3)C2)[n+]([O-])c2cc3c(cc21)CCC3 (stereo not drawn) [Cmpd 17]
viability at 0.01 ug/ml [3]: 104%
viability at 0.1 ug/ml [3]: 82%
viability at 1 ug/ml [3]: 69%
MIC (OFX-R): 0.049 µg/mL (≈ 0.134 µM)
MIC (INH-r): 0.049 µg/mL (≈ 0.134 µM)
MIC (H37Rv): 0.098 µg/mL (≈ 0.267 µM)
MIC (RMP-R): 0.027 µg/mL (≈ 0.0737 µM)

COc1cccc(C2CCN(c3n[n+]([O-])c4cc5c(cc4[n+]3[O-])CCC5)C2)c1OC (stereo not drawn) [Cmpd 18]
viability at 0.01 ug/ml [3]: 85%
viability at 0.1 ug/ml [3]: 55%
viability at 1 ug/ml [3]: 33%
MIC (OFX-R): 0.049 µg/mL (≈ 0.12 µM)
MIC (INH-r): 0.195 µg/mL (≈ 0.477 µM)
MIC (H37Rv): 0.391 µg/mL (≈ 0.957 µM)
MIC (RMP-R): 0.391 µg/mL (≈ 0.957 µM)

CCC(COC)Nc1n[n+]([O-])c2ccccc2[n+]1[O-] (stereo not drawn) [Compound 8i, 3-((1-methoxybutan-2-yl)amino)benzo[e][1,2,4]triazine 1,4-dioxide]
CC50 at 72 h (in vitro): > 50 µg/mL
MIC (Mtb H37Rv [1]): 10 µg/mL (≈ 37.8 µM)
MIC (NRP Mtb H37Rv cells): 4.9 µg/mL (≈ 18.5 µM)
MIC (Mtb H37Rv [2]): 6.6 µg/mL (≈ 25 µM)
